The source of these data is US9371331B2, “Modulators of methyl modifying enzymes, compositions and uses thereof” (Constellation Pharmaceuticals, Inc., priority 2012, dated 2016).

One may read the IC50 as the concentration at which inhibition is half-maximal.

Read-outs that look alike come from different tables or passages of the source. Bounds are passed on as bounds.

For test [1], the target named is EZH2 (rPRC2) (Homo sapiens, UniProt Q15910). Kind of test: EZH2 assay: rPRC2, biotinylated oligonucleosomes, 3H SAM methyl transfer (FlashPlate scintillation). Format: biochemical. As to conditions: biotinylated oligonucleosome substrate.
The target of test [2] is Y641N EZH2 (Homo sapiens, UniProt Q15910, Y641N). Kind of test: Y641N EZH2 assay: as EZH2 assay, with reconstituted H3K27Me2 oligonucleosomes as substrate. The class given is biochemical.
Where [3] appears, read: wild-type EZH2 (rPRC2), read-out: EZH2 IC50.
Setting [4] is: Y641N mutant EZH2, H3K27Me2 oligonucleosome substrate, read-out: Y641N EZH2 IC50.
Setting [5] is: EZH2 IC50, wild-type EZH2 (rPRC2).
Where [6] appears, read: Y641N EZH2 IC50, Y641N mutant EZH2, H3K27Me2 oligonucleosome substrate.

Chain of EZH2 (rPRC2) (Q15910 whole entry): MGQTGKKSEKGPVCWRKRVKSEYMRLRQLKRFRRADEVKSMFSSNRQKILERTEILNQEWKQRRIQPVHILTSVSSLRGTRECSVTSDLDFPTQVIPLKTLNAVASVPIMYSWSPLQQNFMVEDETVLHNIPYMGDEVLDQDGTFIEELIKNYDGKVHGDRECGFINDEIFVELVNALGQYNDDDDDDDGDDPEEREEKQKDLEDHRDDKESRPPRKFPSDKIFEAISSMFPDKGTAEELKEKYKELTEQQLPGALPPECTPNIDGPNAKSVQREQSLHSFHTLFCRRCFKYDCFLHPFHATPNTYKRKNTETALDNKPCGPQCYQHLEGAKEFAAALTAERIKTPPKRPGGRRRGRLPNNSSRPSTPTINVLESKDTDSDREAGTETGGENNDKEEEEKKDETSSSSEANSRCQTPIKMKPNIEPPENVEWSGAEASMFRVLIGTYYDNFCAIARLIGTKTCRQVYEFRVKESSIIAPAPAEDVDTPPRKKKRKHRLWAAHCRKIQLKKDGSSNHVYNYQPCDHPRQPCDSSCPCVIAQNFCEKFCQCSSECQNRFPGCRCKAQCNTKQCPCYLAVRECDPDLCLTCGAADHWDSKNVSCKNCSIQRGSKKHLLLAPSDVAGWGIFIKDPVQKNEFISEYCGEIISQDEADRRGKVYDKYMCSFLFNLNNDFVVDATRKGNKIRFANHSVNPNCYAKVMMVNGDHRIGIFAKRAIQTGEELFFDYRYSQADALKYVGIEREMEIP
Chain of EZH2 (rPRC2) (O75530 whole entry partner): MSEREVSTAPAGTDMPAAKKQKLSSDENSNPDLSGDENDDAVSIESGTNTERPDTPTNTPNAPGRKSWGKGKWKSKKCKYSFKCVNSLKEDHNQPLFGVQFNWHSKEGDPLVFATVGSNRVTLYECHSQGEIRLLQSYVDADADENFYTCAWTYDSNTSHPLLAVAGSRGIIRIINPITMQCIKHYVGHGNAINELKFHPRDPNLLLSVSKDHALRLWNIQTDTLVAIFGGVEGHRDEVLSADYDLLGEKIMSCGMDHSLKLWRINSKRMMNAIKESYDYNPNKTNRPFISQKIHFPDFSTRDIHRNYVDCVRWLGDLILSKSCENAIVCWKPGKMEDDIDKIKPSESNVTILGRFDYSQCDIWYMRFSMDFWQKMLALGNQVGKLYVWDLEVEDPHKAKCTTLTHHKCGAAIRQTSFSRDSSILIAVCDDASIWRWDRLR
Chain of EZH2 (rPRC2) (Q15022 whole entry partner): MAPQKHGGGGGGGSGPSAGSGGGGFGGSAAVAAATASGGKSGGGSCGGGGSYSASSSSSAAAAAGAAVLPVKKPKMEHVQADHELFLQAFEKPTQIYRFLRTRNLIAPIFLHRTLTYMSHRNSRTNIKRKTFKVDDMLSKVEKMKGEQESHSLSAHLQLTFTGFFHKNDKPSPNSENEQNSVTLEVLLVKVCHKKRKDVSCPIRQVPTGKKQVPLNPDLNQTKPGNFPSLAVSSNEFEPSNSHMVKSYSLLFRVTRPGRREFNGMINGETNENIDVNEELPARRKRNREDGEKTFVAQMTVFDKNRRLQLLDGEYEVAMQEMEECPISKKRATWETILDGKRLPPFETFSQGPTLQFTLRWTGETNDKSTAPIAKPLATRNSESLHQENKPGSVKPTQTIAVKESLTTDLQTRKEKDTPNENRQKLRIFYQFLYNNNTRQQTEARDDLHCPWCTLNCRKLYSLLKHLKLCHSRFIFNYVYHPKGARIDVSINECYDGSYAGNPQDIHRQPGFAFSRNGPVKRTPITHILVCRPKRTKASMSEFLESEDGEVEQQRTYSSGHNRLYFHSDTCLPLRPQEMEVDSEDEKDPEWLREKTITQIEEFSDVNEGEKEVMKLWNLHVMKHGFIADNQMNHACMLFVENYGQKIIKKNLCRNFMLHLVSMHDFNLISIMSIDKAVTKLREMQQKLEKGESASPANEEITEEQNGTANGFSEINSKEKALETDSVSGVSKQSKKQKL
Chain of Y641N EZH2 (Q15910 whole entry Y641N): as the sequence (Q15910 whole entry) above, with Y641N counted along it
Chain of Y641N EZH2 (O75530 whole entry partner): as the sequence (O75530 whole entry partner) above
Chain of Y641N EZH2 (Q15022 whole entry partner): as the sequence (Q15022 whole entry partner) above

Consider `Cc1cc(C)c(CNC(=O)c2c(C)n(S(=O)(=O)N3CCCCC3)c3ncccc23)c(=O)[nH]1` [Compound 194, N-((4,6-dimethyl-2-oxo-1,2-dihydropyridin-3-yl)methyl)-2-methyl-1-(piperidin-1-ylsulfonyl)-1H-pyrrolo[2,3-b]pyridine-3-carboxamide], for which the IC50 in test [1] (setting [3]) fell in the range of 0.1 to 1 µM; in test [2] (setting [4]), 1 to 10 µM.

As for `CC[C@@H](C)n1c(C)c(C(=O)NCc2c(C)cc(C)[nH]c2=O)c2cnc(C(C)C)nc21` [Compound 197, (R)-7-(sec-butyl)-N-((4,6-dimethyl-2-oxo-1,2-dihydropyridin-3-yl)methyl)-2-isopropyl-6-methyl-7H-pyrrolo[2,3-d]pyrimidine-5-carboxamide], the IC50 in test [1] (setting [5]) and in test [2] (setting [6]) was 0.1 to 1 µM each time.

On to `CC[C@@H](C)n1c(C)c(C(=O)NCc2c(C)cc(C)[nH]c2=O)c2cnc(C(=O)NC)nc21` [Compound 198, (R)-7-(sec-butyl)-N5-((4,6-dimethyl-2-oxo-1,2-dihydropyridin-3-yl)methyl)-N2,6-dimethyl-7H-pyrrolo[2,3-d]pyrimidine-2,5-dicarboxamidc], for which the 50% inhibitory concentration (IC50) in test [1] (setting [3]) and in test [2] (setting [4]) was 1 to 10 µM in each case.

Regarding `CC[C@@H](C)n1c(C)c(C(=O)NCc2c(C)cc(C)[nH]c2=O)c2cnc(CO)nc21` [Compound 199, (R)-7-(sec-butyl)-N-((4,6-dimethyl-2-oxo-1,2-dihydropyridin-3-yl)methyl)-2-(hydroxymethyl)-6-methyl-7H-pyrrolo[2,3-d]pyrimidine-5-carboxamide], the values for the half-maximal inhibitory concentration (IC50) in test [1] (setting [3]) and in test [2] (setting [4]) were 0.1 to 1 µM and 1 to 10 µM, respectively.

As for `CC[C@@H](C)n1c(C)c(C(=O)NCc2c(C)cc(C)[nH]c2=O)c2cnc(C)nc21` [Compound 200, (R)-7-(sec-butyl)-N-((4,6-dimethyl-2-oxo-1,2-dihydropyridin-3-yl)methyl)-2,6-dimethyl-7H-pyrrolo[2,3-d]pyrimidine-5-carboxamide], the IC50 in test [1] (setting [5]) is 0.1 to 1 µM; in test [2] (setting [6]) it was 1 to 10 µM.

`Cc1cc(C)c(CNC(=O)c2c(C)n(C3CCOCC3)c3ncccc23)c(=O)[nH]1` [Compound 244, N-((4,6-dimethyl-2-oxo-1,2-dihydropyridin-3-yl)methyl)-2-methyl-1-(tetrahydro-2H-pyran-4-yl)-1H-pyrrolo[2,3-b]pyridine-3-carboxamide]: the figures for the IC50 in test [1] (setting [5]) and in test [2] (setting [6]) were 0.1 to 1 µM and 1 to 10 µM, respectively.

As to `Cc1cc(C)c(CNC(=O)c2c(C)n(CC3(C)COC3)c3ccccc23)c(=O)[nH]1` [Compound 246, N-((4,6-dimethyl-2-oxo-1,2-dihydropyridin-3-yl)methyl)-2-methyl-1-((3-methyloxetan-3-yl)methyl)-1H-indole-3-carboxamide], the IC50 in test [1] (setting [5]) and in test [2] (setting [6]) was 0.1 to 1 µM in each case.

Take `CNC(=O)c1cccc(C(C)n2c(C)c(C(=O)NCc3c(OC)cc(C)[nH]c3=O)c3cccnc32)c1` (centres unmarked) [Compound 263, N-((4-methoxy-6-methyl-2-oxo-1,2-dihydropyridin-3-yl)methyl)-2-methyl-1-(1-(3-(methylcarbamoyl)phenyl)ethyl)-1H-pyrrolo[2,3-b]pyridine-3-carboxamide]: the IC50 in test [1] (setting [3]) was less than 0.1 µM; in test [2] (setting [4]), 0.1 to 1 µM.

As for `COc1cc(C)[nH]c(=O)c1CNC(=O)c1c(C)n(C(C)C(OC)c2ccccc2)c2ncccc12` (centres unmarked) [Compound 265, 1-(1-methoxy-1-phenylpropan-2-yl)-N-((4-methoxy-6-methyl-2-oxo-1,2-dihydropyridin-3-yl)methyl)-2-methyl-1H-pyrrolo[2,3-b]pyridine-3-carboxamide], the IC50 in test [1] (setting [3]) is less than 0.1 µM; in test [2] (setting [4]) it was 0.1 to 1 µM.

Take `Cc1cc(C)c(CNC(=O)c2c(C)n(C(C)C(C)(C)O)c3ncccc23)c(=O)[nH]1` (centres unmarked) [Compound 271, N-((4,6-dimethyl-2-oxo-1,2-dihydropyridin-3-yl)methyl)-1-(3-hydroxy-3-methylbutan-2-yl)-2-methyl-1H-pyrrolo[2,3-b]pyridine-3-carboxamide]: the IC50 in test [1] (setting [5]) and in test [2] (setting [6]) was 1 to 10 µM throughout.

`COc1cc(C)[nH]c(=O)c1CNC(=O)c1c(C)n([C@@H](C)c2ccccc2)c2ncccc12` [Compound 276, (S)-N-((4-methoxy-6-methyl-2-oxo-1,2-dihydropyridin-3-yl)methyl)-2-methyl-1-(1-phenylethyl)-1H-pyrrolo[2,3-b]pyridine-3-carboxamide]: the IC50 in test [1] (setting [5]) and in test [2] (setting [6]) was less than 0.1 µM in each case.

As to `COC[C@H](C)n1c(C)c(C(=O)NCc2c(OC)cc(C)[nH]c2=O)c2cncnc21` [Compound 287, (S)-N-((4-methoxy-6-methyl-2-oxo-1,2-dihydropyridin-3-yl)methyl)-7-(1-methoxypropan-2-yl)-6-methyl-7H-pyrrolo[2,3-d]pyrimidine-5-carboxamide], the IC50 was 0.1 to 1 µM in test [1] (setting [5]) and 1 to 10 µM in test [2] (setting [6]).

With `CCC(OC)C(C)n1c(C)c(C(=O)NCc2c(OC)cc(C)[nH]c2=O)c2cccnc21` (centres unmarked) [Compound 293, N-((4-methoxy-6-methyl-2-oxo-1,2-dihydropyridin-3-yl)methyl)-1-(3-methoxypentan-2-yl)-2-methyl-1H-pyrrolo [2,3-b] pyridine-3-carboxamide], the values for the IC50 in test [1] (setting [5]) and in test [2] (setting [6]) were less than 0.1 µM and 0.1 to 1 µM, respectively.

`COc1cc(C)[nH]c(=O)c1CNC(=O)c1c(C)n(C(C)CC(N)=O)c2ncccc12` (centres unmarked) [Compound 296, 1-(4-amino-4-oxobutan-2-yl)-N-((4-methoxy-6-methyl-2-oxo-1,2-dihydropyridin-3-yl)methyl)-2-methyl-1H-pyrrolo[2,3-b]pyridine-3-carboxamide]: the IC50 in test [1] (setting [3]) fell in the range of 0.1 to 1 µM; in test [2] (setting [4]), 1 to 10 µM.

Turning to `CCC(OC)C(C)n1c(C)c(C(=O)NCc2c(OC)cc(C)[nH]c2=O)c2ccccc21` (centres unmarked) [Compound 299, N-((4-methoxy-6-methyl-2-oxo-1,2-dihydropyridin-3-yl)methyl)-1-(3-methoxypentan-2-yl)-2-methyl-1H-indole-3-carboxamide], the IC50 in test [1] (setting [5]) and in test [2] (setting [6]) was less than 0.1 µM in each case.

Turning to `COc1cc(C)[nH]c(=O)c1CNC(=O)c1c(C)n(C(C)C(OC)C(F)(F)F)c2ncccc12` (centres unmarked) [Compound 312, N-((4-methoxy-6-methyl-2-oxo-1,2-dihydropyridin-3-yl)methyl)-2-methyl-1-(4,4,4-trifluoro-3-methoxybutan-2-yl)-1H-pyrrolo [2,3-b] pyridine-3-carboxamide], the IC50 in test [1] (setting [5]) and in test [2] (setting [6]) was 0.1 to 1 µM in each case.

Turning to `COC(C)C(C)n1c(C)c(C(=O)NCc2c(C)cc(C)[nH]c2=O)c2ccc(S(C)(=O)=O)cc21` (centres unmarked) [Compound 322, N-((4,6-dimethyl-2-oxo-1,2-dihydropyridin-3-yl)methyl)-1-(3-methoxybutan-2-yl)-2-methyl-6-(methylsulfonyl)-1H-indole-3-carboxamide], the half-inhibitory concentration (IC50) in test [1] (setting [5]) and in test [2] (setting [6]) was 0.1 to 1 µM in each case.

On to `COc1cc(C)[nH]c(=O)c1CNC(=O)c1c(C)n(C(C)C(C)OC)c2cc(S(C)(=O)=O)ccc12` (centres unmarked) [Compound 323, N-((4-methoxy-6-methyl-2-oxo-1,2-dihydropyridin-3-yl)methyl)-1-(3-methoxybutan-2-yl)-2-methyl-6-(methylsulfonyl)-1H-indole-3-carboxamide], for which the IC50 in test [1] (setting [5]) was less than 0.1 µM; in test [2] (setting [6]), 0.1 to 1 µM.

With `COc1cc(C)[nH]c(=O)c1CNC(=O)c1c(C)n(C(=O)CC(C)C)c2ccccc12` [Compound 329, N-((4-methoxy-6-methyl-2-oxo-1,2-dihydropyridin-3-yl)methyl)-2-methyl-1-(3-methylbutanoyl)-1H-indole-3-carboxamide], the IC50 in test [1] (setting [3]) and in test [2] (setting [4]) was 0.1 to 1 µM each time.

For `COc1cc(C)[nH]c(=O)c1CNC(=O)c1c(C)n(C2CCN(C(=O)OC(C)(C)C)CC2)c2ccccc12` [Compound 331, tert-butyl 4-(3-(((4-methoxy-6-methyl-2-oxo-1,2-dihydropyridin-3-yl)methyl)carbamoyl)-2-methyl-1H-indol-1-yl)piperidine-1-carboxylate], the IC50 was less than 0.1 µM in test [1] (setting [5]) and 0.1 to 1 µM in test [2] (setting [6]).

With `COc1cc(C)[nH]c(=O)c1CNC(=O)c1c(C)n(C(C)C2COCCO2)c2ccccc12` (centres unmarked) [Compound 348, 1-(1-(1,4-dioxan-2-yl)ethyl)-N-((4-methoxy-6-methyl-2-oxo-1,2-dihydropyridin-3-yl)methyl)-2-methyl-1H-indole-3-carboxamide], the IC50 in test [1] (setting [5]) and in test [2] (setting [6]) was less than 0.1 µM throughout.

On to `COc1cc(C)[nH]c(=O)c1CNC(=O)c1c(C)n(C(C)C(C)S(C)(=O)=O)c2ccccc12` (centres unmarked) [Compound 350, N-((4-methoxy-6-methyl-2-oxo-1,2-dihydropyridin-3-yl)methyl)-2-methyl-1-(3-(methylsulfonyl)butan-2-yl)-1H-indole-3-carboxamide], for which the IC50 in test [1] (setting [5]) and in test [2] (setting [6]) was less than 0.1 µM each time.

For `COc1cc(C)[nH]c(=O)c1CNC(=O)c1c(C)n(C(C)[C@H]2CNCCO2)c2ncncc12` (stereo partly drawn) [Compound 351, N-((4-methoxy-6-methyl-2-oxo-1,2-dihydropyridin-3-yl)methyl)-6-methyl-7-(1-((R)-morpholin-2-yl)ethyl)-7H-pyrrolo[2,3-d]pyrimidine-5-carboxamide], the 50% inhibitory concentration (IC50) in test [1] (setting [5]) was less than 0.1 µM; in test [2] (setting [6]), 0.1 to 1 µM.

Regarding `COc1cc(C)[nH]c(=O)c1CNC(=O)c1c(C)n(C(=O)C2CCOCC2)c2ccccc12` [Compound 372, N-((4-methoxy-6-methyl-2-oxo-1,2-dihydropyridin-3-yl)methyl)-2-methyl-1-(tetrahydro-2H-pyran-4-carbonyl)-1H-indole-3-carboxamide], the concentration for half-maximal inhibition (IC50) in test [1] (setting [3]) is 0.1 to 1 µM. For the same molecule, the “Y641N EZH2 IC50” value in test [2] (Y641N mutant EZH2, H3K27Me2 oligonucleosome substrate) is on record as “*(0.5 uM)”.

For the molecule “(±)-N-((6-(hydroxymethyl)-4-methoxy-2-oxo-1,2-dihydropyridin-3-yl)methyl)-1-(1-methoxypropan-2-yl)-2-methyl-1H-pyrrolo[2,3-b]pyridine-3-carboxamide [Compound 262]”, the IC50 in test [1] (setting [3]) is 0.1 to 1 µM; in test [2] (setting [4]) it was 1 to 10 µM.
